Assay [1] can be described thus: Antibiotic susceptibility (MIC), broth microdilution / agar dilution, CLSI M07. Conditions: for Minimum Inhibitory Concentration (MIC): VTT-E-193585, 48 h ± 1 h, aerobic, +35±2° C., cation-adjusted Mueller Hinton Broth, fosfomycin by agar dilution; for MIC values for VTT-E-193585 compared to E. coli ATCC 25922: comparison in words.
Assay [2] in a line: Antibiotic susceptibility (MIC), quality control strain. Particulars: E. coli ATCC 25922, 18 h ± 2 h, aerobic, +35±2° C.

Take `CC1(C)S[C@@H]2[C@H](NC(=O)[C@H](N)c3ccccc3)C(=O)N2[C@H]1C(=O)O` [Ampicillin]: in assay [1], the “Minimum Inhibitory Concentration (MIC)” value is 16 mg/L and the “MIC values for VTT-E-193585 compared to E. coli ATCC 25922” value is on record as “higher”. The “Minimum Inhibitory Concentration (MIC)” value in assay [2] is 8 mg/L.
Regarding `C[C@@H]1O[C@@H]1P(=O)(O)O` [Fosfomycin], the “Minimum Inhibitory Concentration (MIC)” value was found to be 32 mg/L in assay [1] and 0.5 mg/L in assay [2]. Also, the “MIC values for VTT-E-193585 compared to E. coli ATCC 25922” value in assay [1] is listed as “higher”.
Consider `[H]/N=C(/N)N[C@H]1[C@H](O)[C@@H](O)[C@H](O[C@@H]2O[C@@H](C)[C@](O)(C=O)[C@H]2O[C@@H]2O[C@@H](CO)[C@H](O)[C@@H](O)[C@@H]2NC)[C@@H](N/C(N)=N\[H])[C@@H]1O` [Streptomycin], for which, in assay [1], the “Minimum Inhibitory Concentration (MIC)” value amounted to 0.5 mg/L and the “MIC values for VTT-E-193585 compared to E. coli ATCC 25922” value is on record as “lower or comparable”. For the same compound, the “Minimum Inhibitory Concentration (MIC)” value in assay [2] amounted to 4 mg/L.
For Colistin, in assay [1], the “Minimum Inhibitory Concentration (MIC)” value was 4 mg/L and the “MIC values for VTT-E-193585 compared to E. coli ATCC 25922” value was “higher”. Further, the “Minimum Inhibitory Concentration (MIC)” value in assay [2] was 2 mg/L.
For Gentamicin, in that order: 0.5 mg/L, “lower or comparable” and 0.5 mg/L.

For the origin of these results see US20240254435A1, “VARIANT BACTERIAL STRAINS AND PROCESSES FOR PROTEIN OR BIOMASS PRODUCTION” (Solar Foods Oy, priority 2021, published 2024).
